Measured values reported in US9790217B2, “Pyridinyloxy- and phenyloxy-pyrazolyl compounds” (Hoffmann-La Roche Inc., priority 2014, dated 2017).

Experiments:
human CYP11B2 = human CYP11B2 (Homo sapiens (Human), UniProt P19099); assay: G-402 cellular enzyme assay, human CYP11B2 (aldosterone release, HTRF); format: cell-based; settings: G-402 cells expressing human CYP11B2; 1 μM Deoxycorticosterone
Description: (§1) Herein we identified the use of the G-402 cell line as a host cell to ectopically express (transiently or stably) enzymes of the CYP11 family. Specifically we developed stable G-402 cells expressing ectopically human CYP11B1, human CYP11B2, human CYP11A1, cynmolgus CYP11B1 or cynomolgus CYP11B2 enzyme activity. Importantly the identified cell line G-402 expresses co-factors (adrenodoxin and adrenodoxin reductase) important for the activity of the CYP11 family and no relevant enzyme activity of the CYP11 family (in comparison to H295R cells) was detected in these cells. Therefore the G-402 cell line is uniquely suited as a host cell for the ectopic expression of enzymes from the CYP11 family.
(§2) G-402 cells can be obtained from ATCC (CRL-1440) and were originally derived from a renal leiomyoblastoma.
(§3) The expression plasmids contains the ORF for either human/cyno CYP11B1 or CYP11B2 under the control of a suitable promoter (CMV-promoter) and a suitable resistance marker (neomycin). Using standard techniques the expression plasmid is transfected into G-402 cells and these cells are then selected for expressing the given resistance markers. Individual cell-clones are then selected and assessed for displaying the desired enzymatic activity using 11-Deoxycorticosterone (Cyp11B2) or 11-Deoxycortisol (Cyp11B1) as a substrate.
(§4) G-402 cells expressing CYP11 constructs were established as described above and maintained in McCoy's 5a Medium Modified, ATCC Catalog No. 30-2007 containing 10% FCS and 400 μg/ml G418 (Geneticin) at 37° C. under an atmosphere of 5% CO2/95% air. Cellular enzyme assays were performed in DMEM/F12 medium containing 2.5% charcoal treated FCS and appropriate concentration of substrate (0.3-10 uM 11-Deoxycorticosterone, 11-Deoxycortisol or Corticosterone). For assaying enzymatic activity, cells were plated onto 96 well plates and incubated for 16 h. An aliquot of the supernatant is then transferred and analyzed for the concentration of the expected product (Aldosterone for CYP11B2; Cortisol for CYP11B1). The concentrations of these steroids can be determined using HTRF assays from CisBio analyzing either Aldosterone or Cortisol.
(§5) Inhibition of the release of produced steroids can be used as a measure of the respective enzyme inhibition by test compounds added during the cellular enzyme assay. The dose dependent inhibition of enzymatic activity by a compound is calculated by means of plotting added inhibitor concentrations (x-axes) vs. measured steroid/product level (y-axes). The inhibition is then calculated by fitting the following 4-parameter sigmoidal function (Morgan-Mercer-Flodin (MMF) model) to the raw data points using the least squares method:
(§6) [formula] wherein, A is the maximum y value, B is the EC50 factor determined using XLFit, C is the minimum y value and D is the slope value.
(§7) EC50 values for compounds claimed herein were tested with the G402-based assay system described. Cyp11B2 enzyme activity was tested in presence of 1 μM Deoxycorticosterone and variable amounts of inhibitors; Cyp11B1 enzyme activity was tested in presence of 1 μM Deoxycortisol and variable amounts of inhibitors.

human CYP11B1 = human CYP11B1 (Homo sapiens (Human), UniProt P15538); assay: G-402 cellular enzyme assay, human CYP11B1 (cortisol release, HTRF); format: cell-based; settings: G-402 cells expressing human CYP11B1; 1 μM Deoxycortisol
Description: as §1, §2, §3, §4, §5, §6, §7

Chain of human CYP11B2 (P19099 25-503): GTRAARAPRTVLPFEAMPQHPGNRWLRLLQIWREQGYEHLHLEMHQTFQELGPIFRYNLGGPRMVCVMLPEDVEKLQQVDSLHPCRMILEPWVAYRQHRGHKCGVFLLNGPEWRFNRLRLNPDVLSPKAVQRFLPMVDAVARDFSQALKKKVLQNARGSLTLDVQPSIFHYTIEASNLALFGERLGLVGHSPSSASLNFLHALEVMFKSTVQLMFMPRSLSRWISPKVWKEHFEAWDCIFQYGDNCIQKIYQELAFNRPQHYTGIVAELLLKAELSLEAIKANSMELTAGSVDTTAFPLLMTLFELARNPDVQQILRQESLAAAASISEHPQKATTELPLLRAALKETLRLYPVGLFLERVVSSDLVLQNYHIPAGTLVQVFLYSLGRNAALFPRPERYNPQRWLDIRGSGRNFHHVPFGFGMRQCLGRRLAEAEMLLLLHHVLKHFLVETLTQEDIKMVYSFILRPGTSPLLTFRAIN
Chain of human CYP11B1 (P15538 25-503): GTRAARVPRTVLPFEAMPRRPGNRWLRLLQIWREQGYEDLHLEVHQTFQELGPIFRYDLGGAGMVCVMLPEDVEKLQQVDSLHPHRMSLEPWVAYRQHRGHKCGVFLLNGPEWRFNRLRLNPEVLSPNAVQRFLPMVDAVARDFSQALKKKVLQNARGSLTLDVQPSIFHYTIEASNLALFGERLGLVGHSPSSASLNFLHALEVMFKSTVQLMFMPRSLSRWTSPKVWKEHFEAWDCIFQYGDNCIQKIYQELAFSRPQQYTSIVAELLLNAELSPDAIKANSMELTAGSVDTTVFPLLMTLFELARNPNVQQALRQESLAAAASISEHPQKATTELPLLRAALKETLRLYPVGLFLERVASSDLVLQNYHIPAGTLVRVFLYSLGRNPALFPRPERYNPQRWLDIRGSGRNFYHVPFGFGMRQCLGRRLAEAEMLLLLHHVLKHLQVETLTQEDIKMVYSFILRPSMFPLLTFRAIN

Compound	EC50 (human CYP11B2) [nM]	EC50 (human CYP11B1) [nM]
N#Cc1ccc(Oc2cn[nH]c2-c2cccc(Cn3ccc(=O)cc3)c2)cc1 [Example 72, 4-[[3-[3-[(4-Oxopyridin-1-yl)methyl]phenyl]-1H-pyrazol-4-yl]oxy]benzonitrile]	1630	19300
CS(=O)(=O)N1CCN(C(=O)c2cccc(-c3[nH]ncc3Oc3ccc(C#N)cc3)c2)CC1 [Example 46, 4-[[3-[3-(4-Methylsulfonylpiperazine-1-carbonyl)phenyl]-1H-pyrazol-4-yl]oxy]benzonitrile]	1050	10700
N#Cc1ccc(Oc2cn[nH]c2-c2cccc(Cl)c2)cc1 [Example 32, 4-[[5-(3-Chlorophenyl)-1H-pyrazol-4-yl]oxy]benzonitrile]	45.8	542
Cn1cc(C(=O)N2CCCC(c3[nH]ncc3Oc3ccc(C#N)cc3)C2)cn1 (racemic) [Example 63, (rac)-4-[[3-[1-(1-Methylpyrazole-4-carbonyl)piperidin-3-yl]-1H-pyrazol-4-yl]oxy]benzonitrile]	150	6470
Fc1cccc(Oc2cn[nH]c2-c2ccc(Cl)cc2Cl)n1 [Example 21, 2-[[5-(2,4-Dichlorophenyl)-1H-pyrazol-4-yl]oxy]-6-fluoropyridine]	101	841
N#Cc1ccc(Oc2cn[nH]c2-c2cccc(OCc3ccncc3)c2)cc1 [Example 54, 4-[[3-[3-(Pyridin-4-ylmethoxy)phenyl]-1H-pyrazol-4-yl]oxy]benzonitrile]	3.5	46.5
N#Cc1ccc(Oc2cn[nH]c2-c2ccnc(Cl)c2)cc1 [Example 37, 4-[[5-(2-Chloropyridin-4-yl)-1H-pyrazol-4-yl]oxy]benzonitrile]	317	10500
Cc1cc(COc2cccc(-c3[nH]ncc3Oc3ccc(C#N)cc3)c2)on1 [Example 52, 4-[[3-[3-[(3-Methyl-1,2-oxazol-5-yl)methoxy]phenyl]-1H-pyrazol-4-yl]oxy]benzonitrile]	14.8	32.3
COC(=O)c1cccc(-c2[nH]ncc2Oc2ccc(C#N)cc2F)c1 [Example 38, Methyl 3-[4-(4-cyano-2-fluorophenoxy)-1H-pyrazol-3-yl]benzoate]	31.9	321
N#Cc1ccc(Oc2cn[nH]c2-c2cnn(Cc3ccccc3)c2)cc1 [Example 68, 4-[[5-(1-Benzylpyrazol-4-yl)-1H-pyrazol-4-yl]oxy]benzonitrile]	439	2400
Cn1cc(COc2cccc(-c3[nH]ncc3Oc3ccc(C#N)cc3)c2)cn1 [Example 56, 4-[[3-[3-[(1-Methylpyrazol-4-yl)methoxy]phenyl]-1H-pyrazol-4-yl]oxy]benzonitrile]	9.5	93.6
Fc1cc(Cl)ccc1-c1[nH]ncc1Oc1ccc(C(F)(F)F)cc1 [Example 27, 5-(4-Chloro-2-fluorophenyl)-4-[4-(trifluoromethyl)phenoxy]-1H-pyrazole]	575	3320
N#Cc1ccc(Oc2cn[nH]c2-c2ccccc2OCc2ccncc2)cc1 [Example 76, 4-[[3-[2-(Pyridin-4-ylmethoxy)phenyl]-1H-pyrazol-4-yl]oxy]benzonitrile]	0.2	6.8
CC(=O)N1CCC(Oc2cccc(-c3[nH]ncc3Oc3ccc(C#N)cc3)c2)C1 (racemic) [Example 58, (rac)-4-[[3-[3-(1-Acetylpyrrolidin-3-yl)oxyphenyl]-1H-pyrazol-4-yl]oxy]benzonitrile]	215	1510
N#Cc1ccc(Oc2cn[nH]c2-c2cccc(O)c2)cc1 [Example 48, 4-[[3-(3-Hydroxyphenyl)-1H-pyrazol-4-yl]oxy]benzonitrile]	20.4	83.4
N#Cc1ccc(Oc2cn[nH]c2-c2ccccc2OCc2ccccn2)cc1 [Example 79, 4-[[3-[2-(Pyridin-2-ylmethoxy)phenyl]-1H-pyrazol-4-yl]oxy]benzonitrile]	0.2	2.5
Cn1cc(C(=O)N2CCCC(c3[nH]ncc3Oc3ccc(C#N)cc3F)C2)cn1 (racemic) [Example 89, (rac)-3-Fluoro-4-[[5-[1-(1-methylpyrazole-4-carbonyl)piperidin-3-yl]-1H-pyrazol-4-yl]oxy]benzonitrile]	231	7760
Cn1cc(COc2ccccc2-c2[nH]ncc2Oc2ccc(C#N)cc2)cn1 [Example 80, 4-[[3-[2-[(1-Methylpyrazol-4-yl)methoxy]phenyl]-1H-pyrazol-4-yl]oxy]benzonitrile]	0.3	6.9
N#Cc1ccc(Oc2cn[nH]c2-c2cccc(OCc3ccnc(Cl)c3)c2)cc1 [Example 55, 4-[[3-[3-[(2-Chloropyridin-4-yl)methoxy]phenyl]-1H-pyrazol-4-yl]oxy]benzonitrile]	33.1	288
N#Cc1ccc(Oc2cn[nH]c2-c2cccc(C(=O)N3CCOCC3)c2)cc1 [Example 45, 4-[[3-[3-(Morpholine-4-carbonyl)phenyl]-1H-pyrazol-4-yl]oxy]benzonitrile]	397	2400

Results, then the molecule that gave them:

EC50 (human CYP11B2) [nM]	EC50 (human CYP11B1) [nM]	Compound
26.4	600	CS(=O)(=O)c1ccc(-c2[nH]ncc2Oc2ccc(Cl)cc2)cc1 [Example 12, 4-(4-Chlorophenoxy)-5-(4-methylsulfonylphenyl)-1H-pyrazole]
60.8	522	CSc1ccc(-c2[nH]ncc2Oc2ccc(Cl)cc2)c(Cl)c1 [Example 17, 5-(2-Chloro-4-methylsulfanylphenyl)-4-(4-chlorophenoxy)-1H-pyrazole]
191	1820	Fc1c(Cl)cccc1-c1[nH]ncc1Oc1ccc(Cl)cc1 [Example 31, 5-(3-Chloro-2-fluorophenyl)-4-(4-chlorophenoxy)-1H-pyrazole]
39.2	262	Fc1cccc(-c2[nH]ncc2Oc2ccc(Cl)cc2)c1Cl [Example 34, 5-(2-Chloro-3-fluorophenyl)-4-(4-chlorophenoxy)-1H-pyrazole]
2.6	51.8	Clc1ccc(Oc2cn[nH]c2-c2ccccc2Cl)cc1 [Example 6, 4-(4-Chlorophenoxy)-5-(2-chlorophenyl)-1H-pyrazole]
463	1970	COc1ccc(Oc2cn[nH]c2-c2ccc(Cl)cc2)cc1 [Example 2, 3-(4-Chlorophenyl)-4-(4-methoxyphenoxy)-1H-pyrazole]
1500	> 30000	N#Cc1ccc(Oc2cn[nH]c2-c2ccccc2C(=O)O)cc1 [Example 40, 2-[4-(4-Cyanophenoxy)-1H-pyrazol-3-yl]benzoic acid]
24.4	861	FC(F)(F)Oc1ccccc1-c1[nH]ncc1Oc1ccc(Cl)cc1 [Example 7, 4-(4-Chlorophenoxy)-5-[2-(trifluoromethoxy)phenyl]-1H-pyrazole]
7.9	167	Fc1ccccc1-c1[nH]ncc1Oc1ccc(Cl)cc1 [Example 9, 4-(4-Chlorophenoxy)-5-(2-fluorophenyl)-1H-pyrazole]
1.5	68.6	N#Cc1ccc(Oc2cn[nH]c2-c2cccc(F)c2Cl)cc1 [Example 35, 4-[[5-(2-Chloro-3-fluorophenyl)-1H-pyrazol-4-yl]oxy]benzonitrile]
0.1	1.3	COc1ccccc1-c1[nH]ncc1Oc1ccc(Cl)cc1 [Example 4, 4-(4-Chlorophenoxy)-3-(2-methoxyphenyl)-1H-pyrazole]
323	1380	Clc1ccc(Oc2cn[nH]c2-c2ccc(Cl)cc2)cc1 [Example 3, 4-(4-Chlorophenoxy)-3-(4-chlorophenyl)-1H-pyrazole]
10.2	350	Fc1cc(Cl)ccc1Oc1cn[nH]c1-c1ccccc1Cl [Example 24, 4-(4-Chloro-2-fluorophenoxy)-5-(2-chlorophenyl)-1H-pyrazole]
8	191	N#Cc1ccc(Oc2cn[nH]c2-c2cccc(Cl)c2F)cc1 [Example 30, 4-[[5-(3-Chloro-2-fluorophenyl)-1H-pyrazol-4-yl]oxy]benzonitrile]
